Results: patent US12729177B2, “Small molecules promoting sympathetic nerve regeneration” (OREGON HEALTH & SCIENCE UNIVERSITY, priority 2020, dated 2026)

How the values were obtained:
[1] = test system: PTPα catalytic activity; settings: read-out: IC50 against PTPα catalytic activity in vitro; cited from earlier work
[2] = target: TrkA-PTPσ interaction (Homo sapiens, UniProt Q13332); experiment: Immunoprecipitation assay: TrkA-RFP pulldown of PTPσ in transfected HEK-293t cells; settings: 1 uM; HEK-293 cells treated with CSPGs and NGF; normalized to vehicle
TrkA-PTPσ interaction, sequence (Q13332 30-1948): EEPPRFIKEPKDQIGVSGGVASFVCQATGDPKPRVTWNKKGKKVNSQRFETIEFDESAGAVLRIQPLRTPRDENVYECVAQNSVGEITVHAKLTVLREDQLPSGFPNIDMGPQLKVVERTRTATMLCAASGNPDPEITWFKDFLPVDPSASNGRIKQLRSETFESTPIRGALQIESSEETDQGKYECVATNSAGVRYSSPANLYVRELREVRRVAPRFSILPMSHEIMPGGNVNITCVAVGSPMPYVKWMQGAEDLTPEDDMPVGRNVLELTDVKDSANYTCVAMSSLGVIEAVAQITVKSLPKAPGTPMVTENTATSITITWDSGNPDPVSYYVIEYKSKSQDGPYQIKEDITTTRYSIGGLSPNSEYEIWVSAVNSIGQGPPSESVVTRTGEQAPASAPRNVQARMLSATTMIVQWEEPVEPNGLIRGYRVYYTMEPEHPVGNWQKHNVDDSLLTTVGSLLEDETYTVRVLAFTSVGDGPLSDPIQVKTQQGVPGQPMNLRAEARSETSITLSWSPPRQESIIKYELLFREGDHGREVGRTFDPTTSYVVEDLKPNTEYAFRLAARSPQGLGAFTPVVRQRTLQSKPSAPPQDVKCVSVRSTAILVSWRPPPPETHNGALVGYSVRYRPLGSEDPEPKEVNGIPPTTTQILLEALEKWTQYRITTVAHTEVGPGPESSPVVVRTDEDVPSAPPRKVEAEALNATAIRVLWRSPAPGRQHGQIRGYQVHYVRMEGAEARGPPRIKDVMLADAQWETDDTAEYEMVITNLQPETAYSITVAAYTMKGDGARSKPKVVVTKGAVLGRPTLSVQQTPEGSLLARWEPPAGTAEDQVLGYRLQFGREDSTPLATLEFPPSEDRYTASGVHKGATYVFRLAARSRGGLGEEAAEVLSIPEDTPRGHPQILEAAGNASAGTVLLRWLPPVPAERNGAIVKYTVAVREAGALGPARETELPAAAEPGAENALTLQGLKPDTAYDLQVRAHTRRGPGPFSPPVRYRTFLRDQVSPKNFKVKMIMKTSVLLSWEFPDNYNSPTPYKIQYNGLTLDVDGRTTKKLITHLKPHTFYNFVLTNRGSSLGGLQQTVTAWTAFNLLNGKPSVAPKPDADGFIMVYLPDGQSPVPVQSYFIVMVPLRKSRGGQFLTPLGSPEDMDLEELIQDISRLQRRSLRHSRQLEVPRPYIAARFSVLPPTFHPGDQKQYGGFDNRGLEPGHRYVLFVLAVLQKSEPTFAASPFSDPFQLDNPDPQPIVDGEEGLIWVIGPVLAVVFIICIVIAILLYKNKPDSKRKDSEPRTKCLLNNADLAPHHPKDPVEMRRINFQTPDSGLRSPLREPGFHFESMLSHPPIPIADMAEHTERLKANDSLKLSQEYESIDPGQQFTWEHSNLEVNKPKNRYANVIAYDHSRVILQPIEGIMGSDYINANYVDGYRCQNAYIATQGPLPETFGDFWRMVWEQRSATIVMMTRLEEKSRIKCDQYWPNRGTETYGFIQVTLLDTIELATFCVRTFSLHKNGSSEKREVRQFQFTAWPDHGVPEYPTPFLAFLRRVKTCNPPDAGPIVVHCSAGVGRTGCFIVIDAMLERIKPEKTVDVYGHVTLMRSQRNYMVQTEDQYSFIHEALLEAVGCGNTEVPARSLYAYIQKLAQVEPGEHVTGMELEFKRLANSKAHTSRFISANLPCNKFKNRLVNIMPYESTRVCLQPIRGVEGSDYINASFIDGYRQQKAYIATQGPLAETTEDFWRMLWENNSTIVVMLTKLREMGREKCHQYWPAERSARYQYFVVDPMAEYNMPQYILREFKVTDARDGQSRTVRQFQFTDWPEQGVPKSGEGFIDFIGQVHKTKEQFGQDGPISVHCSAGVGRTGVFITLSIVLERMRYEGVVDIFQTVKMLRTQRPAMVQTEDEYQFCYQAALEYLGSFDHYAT

[3] = test system: PTPσ inhibition of TrkB signaling (ERK1/2 phosphorylation); experiment: TrkB stimulated ERK phosphorylation in TrkB-HEK-293t cells co-expressing full-length PTPσ; settings: BDNF-induced
[4] = test system: sympathetic nerve density in the infarct; experiment: Sympathetic reinnervation of the infarct after myocardial ischemia-reperfusion (TH+ fiber density); format: in vivo, mouse; settings: mice, s.c. daily days 3-10 after MI; HJ-01, HJ-02 10 mg/kg, ISP 10 μmol; day 14
[5] = test system: cardiac vasculature; experiment: Vascular immunohistochemistry (α-SMA, CD31) after MI; format: in vivo, mouse; settings: 14 days after MI; infarct, peri-infarct, remote myocardium
[6] = test system: ISO-stimulated PVCs; experiment: Isoproterenol-induced arrhythmias after MI, ECG telemetry; format: in vivo, mouse; settings: MI mice, s.c. daily days 3-10; HJ-01, HJ-02 10 mg/kg, ISP 10 μmol; 10 μg isoproterenol, 14 days after MI
[7] = target: T1, PTPσ D1D2 catalytic domain (Homo sapiens, UniProt Q13332); settings: for D1 phosphatase activity (pNPP): 1 μM HJ-02, orthovanadate 10 mM
T1 sequence (Q13332 1304-1948 limits assumed): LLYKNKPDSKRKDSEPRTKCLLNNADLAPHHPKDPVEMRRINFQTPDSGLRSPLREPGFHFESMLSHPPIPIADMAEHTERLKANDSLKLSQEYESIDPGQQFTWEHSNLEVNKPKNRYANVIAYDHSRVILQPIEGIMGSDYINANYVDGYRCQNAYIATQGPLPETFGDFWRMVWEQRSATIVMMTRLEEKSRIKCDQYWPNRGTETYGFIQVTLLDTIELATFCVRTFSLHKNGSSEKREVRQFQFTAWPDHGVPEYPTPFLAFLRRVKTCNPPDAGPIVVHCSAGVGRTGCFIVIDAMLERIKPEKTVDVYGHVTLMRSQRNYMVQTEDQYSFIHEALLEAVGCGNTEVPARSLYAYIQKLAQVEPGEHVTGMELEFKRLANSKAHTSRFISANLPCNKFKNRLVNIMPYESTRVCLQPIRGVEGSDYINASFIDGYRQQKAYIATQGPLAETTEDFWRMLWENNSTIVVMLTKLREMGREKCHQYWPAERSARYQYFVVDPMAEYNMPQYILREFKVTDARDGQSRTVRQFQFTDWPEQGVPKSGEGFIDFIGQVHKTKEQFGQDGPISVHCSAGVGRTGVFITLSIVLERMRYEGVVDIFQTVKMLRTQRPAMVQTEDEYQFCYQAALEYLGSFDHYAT

[8] = test system: panel of other protein phosphatases; experiment: Screen against a panel of other protein phosphatases; format: biochemical
[9] = test system: sympathetic neurons; experiment: Sympathetic outgrowth assay: dissociated sympathetic neurons on laminin or laminin and CSPGs, live cell imaging; settings: 10 ng/mL NGF, imaging over 30 hr
[10] = test system: infarct size; experiment: Infarct size after myocardial ischemia-reperfusion; format: in vivo, mouse; settings: MI mice, treatment beginning three days after reperfusion (days 3-10); infarct as percentage of LV
[11] = test system: cardiac output and ejection fraction; experiment: Echocardiography of cardiac function after MI; format: in vivo, mouse; settings: MI mice, response to isoproterenol
[12] = test system: sympathetic axons; experiment: Compartmentalized cultures: microfluidic chambers, axonal compartment coated with CSPGs; settings: added to the axonal (distal) compartment for 3 hours

Compound | concentration rescuing ERK1/2 phosphorylation [3] [nM] | nerve density within the infarct [4] | density of vasculature (α-SMA, CD31) [5] | ISO-stimulated arrhythmias (PVCs) [6] | D1 phosphatase activity (pNPP) [7] | inhibition of other protein phosphatases in the screen [8] | concentration fully restoring sympathetic axon outgrowth over CSPGs [9] [nM] | infarct size [10] | beta adrenergic receptor supersensitivity [11] | defasiculation of axon bundles growing over CSPGs [12] | rate of axon outgrowth over CSPGs [12] | further results
CC1(C)Cc2c(O)c(C=O)c3c(c2C1)C(=O)OC(O)C3 (stereo not drawn) [Illudalic acid] |  |  |  |  |  |  |  |  |  |  |  | IC50 [1]: ~1 µM
CCC(=O)Nc1cc(OC)c(OCC2CCCCC2)cc1C(=O)O [HJ-03, 5-(cyclohexylmethoxy)-4-methoxy-2-propionamidobenzoic Acid] |  |  |  |  |  |  |  |  |  |  |  | amount of PTPRS co-immunoprecipitated with TrkA-RFP [2]: had no effect
C=CC(=O)Nc1cc(OC)c(OCCCCCC)cc1C(=O)O [HJ-02, 2-acrylamido-5-(hexyloxy)-4-methoxybenzoic Acid] | 10 | restored nerve density within the infarct to the density in sham and uninjured peri-infarct myocardium | no difference in the density of vasculature between any treatment groups | had arrhythmias similar to sham mice | did not inhibit D1 phosphatase activity | neither HJ-01 nor HJ-02 inhibited any of the protein phosphatases | 30 | significantly smaller infarcts compared to vehicle hearts | prevented beta adrenergic receptor supersensitivity | stimulated the defasiculation of axon bundles | enhanced the rate of axon outgrowth | 
[Na+].[Na+].[Na+].[O]=[V]([O-])([O-])[O-] [orthovanadate, sodium-orthovanadate, reference compound] |  |  |  |  | negligible phosphatase activity |  |  |  |  |  |  | 
chondroitinase ABC [reference compound] |  |  |  |  |  |  |  |  |  | stimulated the defasiculation of axon bundles | enhanced the rate of axon outgrowth | 
C=CC(=O)Nc1cc(OC)c(OCC2CCCCC2)cc1C(=O)O [HJ-01, 2-acrylamido-5-(cyclohexylmethoxy)-4-methoxybenzoic Acid] | 100 | restored nerve density within the infarct to the density in sham and uninjured peri-infarct myocardium | no difference in the density of vasculature between any treatment groups | had arrhythmias similar to sham mice |  | neither HJ-01 nor HJ-02 inhibited any of the protein phosphatases | 100 | significantly smaller infarcts compared to vehicle hearts | prevented beta adrenergic receptor supersensitivity | stimulated the defasiculation of axon bundles | enhanced the rate of axon outgrowth | catalytic activity of recombinant PTPσ ([7]; concluding statement, no concentration printed for HJ-01): do not inhibit the catalytic activity of recombinant PTPσ
